The subject of assay [1] is RAW264.7. Put plainly: Inhibition of LPS-induced NO production in mouse RAW264.7 cells compound preincubated for 1 hr before LPS treatment by Griess reaction. It is filed as functional, cell-based. (In general: Nitrite, measured by Griess reagent, commonly stands in for NO production.)
For assay [2], the system named is RAW264.7. Kind of assay: Cytotoxicity mouse RAW264.7 cells assessed as cell viability by MTT assay relative to control. It is filed as cell-based.
For assay [3], the system named is J774.A1. Put plainly: Inhibition of LPS-induced NO production in mouse J774A1 cells compound preincubated for 1 hr before LPS treatment by Griess reaction. The format is functional, cell-based.
The nature of assay [4]: Cytotoxicity against mouse J774A1 cells assessed as cell viability by MTT assay relative to control. The format is cell-based. To be noted: J774.A1. On the technique in general: Formazan colour is commonly taken as a measure of viable cells.
Assay [5] deals with J774.A1. Put plainly: Inhibition of LPS-induced IL1-beta release in mouse J774A1 cells compound preincubated at 20 ug/ml for 1 hr before LPS treatment measured after 6 to 12 hrs by sandwich immunoassay. The format is functional.
Assay [6] concerns RAW264.7. Put plainly: Inhibition of LPS-induced IL1-beta release in mouse RAW264.7 cells compound preincubated at 20 ug/ml for 1 hr before LPS treatment measured after 6 to 12 hrs by sandwich immunoassay. The format is functional.
Assay [7] deals with J774.A1. Kind of assay: Inhibition of LPS-induced TNF-alpha release in mouse J774A1 cells compound preincubated at 20 ug/ml for 1 hr before LPS treatment measured after 6 to 12 hrs by sandwich immunoassay. The format is functional.
The subject of assay [8] is RAW264.7. Kind of assay: Inhibition of LPS-induced TNF-alpha release in mouse RAW264.7 cells compound preincubated at 20 ug/ml for 1 hr before LPS treatment measured after 6 to 12 hrs by sandwich immunoassay. It is filed as functional.
Assay [9] has as its system RAW264.7. Kind of assay: Inhibition of LPS-induced IL1-beta release in mouse RAW264.7 cells compound preincubated for 1 hr before LPS treatment measured after 6 to 12 hrs by sandwich immunoassay. The format is functional, cell-based.
The test system of assay [10] is J774.A1. Put plainly: Inhibition of LPS-induced IL1-beta release in mouse J774A1 cells compound preincubated for 1 hr before LPS treatment measured after 6 to 12 hrs by sandwich immunoassay. It is filed as functional, cell-based.
For assay [11], the system named is J774.A1. Kind of assay: Inhibition of LPS-induced TNF-alpha release in mouse J774A1 cells compound preincubated for 1 hr before LPS treatment measured after 6 to 12 hrs by sandwich immunoassay. It is filed as functional, cell-based.
The subject of assay [12] is RAW264.7. Kind of assay: Inhibition of LPS-induced TNF-alpha release in mouse RAW264.7 cells compound preincubated for 1 hr before LPS treatment measured after 6 to 12 hrs by sandwich immunoassay. It is filed as functional, cell-based.

Results on 17 compounds are retold here after ChEMBL document CHEMBL3352652, “Oleanolic acid analogs as NO, TNF-α and IL-1β inhibitors: synthesis, biological evaluation and docking studies” (Bioorg Med Chem Lett, 2014).

Values after ≈ are worked out from the molar mass of the structure shown.

A word on the IC50: it is the concentration that inhibits the measured activity by half. In the case of `CC1(C)CC[C@]2(C(=O)NCc3ccccc3)CC[C@]3(C)C(=CC[C@@H]4[C@@]5(C)Cc6c([nH]c7ccccc67)C(C)(C)[C@@H]5CC[C@]43C)[C@@H]2C1`, the IC50 came to 24.1 µM in the assay with RAW264.7 [1], 93.5 µM in the assay with RAW264.7 [2], 18.4 µM in the assay on J774.A1 [3] and 93.5 µM in assay [4].
As to `COC(=O)[C@]12CCC(C)(C)C[C@H]1C1=CC[C@@H]3[C@@]4(C)CCC(=O)C(C)(C)[C@@H]4CC[C@@]3(C)[C@]1(C)CC2`, the IC50 in the assay on RAW264.7 [1] is 31.7 µM; in the assay on RAW264.7 [2], 79.3 µM; in the assay with J774.A1 [3], 33.5 µM; in [4], 82.5 µM.
As to `COC(=O)[C@@H](N)CCCNC(=N)N[N+](=O)[O-]` [L-NAME], the IC50 in the assay on J774.A1 [3] amounted to 73.2 µM.
Usually inhibition stands for the change of the read-out against control, counted positive when it falls. A lower inhibition goes with a weak effect. Regarding `CC(=O)O[C@H]1CC[C@]2(C)[C@H]3CC=C4[C@@H]5CC(C)(C)CC[C@]5(C(=O)O)CC[C@@]4(C)[C@]3(C)CC[C@H]2C1(C)C` [ACETYL OLEANOLIC ACID], the inhibition at 20 µg/mL with J774.A1 [5] came to 21.1%; with RAW264.7 [6] it was 22.8%; in the assay on J774.A1 [7], 33.1%; in the assay with RAW264.7 [8], 38.7%. In addition, the concentration for half-maximal inhibition (IC50) in the assay with RAW264.7 [1] amounted to 13.8 µM; with RAW264.7 [2], 79.2 µM; in the assay with J774.A1 [3], 16.8 µM; in [4], 80.3 µM.
On to `COc1cc(/C=C/C(=O)CC(=O)/C=C/c2ccc(O)c(OC)c2)ccc1O` [CURCUMIN], for which the IC50 in the assay on RAW264.7 [9] turned out to be 6.44 µg/mL (≈ 17.5 µM); in the assay on J774.A1 [10], 24.8 µg/mL (≈ 67.4 µM); in the assay on J774.A1 [3] it was 18.5 µM; with J774.A1 [11], 2.08 µg/mL (≈ 5.65 µM); in the assay with RAW264.7 [12] it was 1.25 µg/mL (≈ 3.39 µM).
As for `CC1(C)CC[C@]2(C(=O)O)CC[C@]3(C)C(=CC[C@@H]4[C@@]5(C)CCC(=O)C(C)(C)[C@@H]5CC[C@]43C)[C@@H]2C1` [OLEANONIC ACID], the IC50 in the assay on RAW264.7 [1] worked out at 38.5 µM; with RAW264.7 [2], 89.6 µM; in the assay on J774.A1 [3] it was 38.8 µM; in assay [4], 87.7 µM.
For `CC1(C)CC[C@]2(C(=O)O)CC[C@]3(C)C(=CC[C@@H]4[C@@]5(C)Cc6c([nH]c7ccccc67)C(C)(C)[C@@H]5CC[C@]43C)[C@@H]2C1`, in that order: 18.8 µM, 80.2 µM, 21 µM and 83.7 µM.
Taken in the same sequence, the figures for `CC1(C)CC[C@]2(C(=O)Cl)CC[C@]3(C)C(=CC[C@@H]4[C@@]5(C)Cc6c([nH]c7ccccc67)C(C)(C)[C@@H]5CC[C@]43C)[C@@H]2C1` were 22.8 µM, 86.2 µM, 24.9 µM and 89.3 µM.
Taken in the same sequence, the figures for `CC1(C)CC[C@]2(C(=O)O)CC[C@]3(C)C(=CC[C@@H]4[C@@]5(C)CC/C(=N\O)C(C)(C)[C@@H]5CC[C@]43C)[C@@H]2C1` were 39.2 µM, 82.4 µM, 41.3 µM and 85.5 µM.
As for `Cc1ccc(C)c(NC(=O)[C@]23CCC(C)(C)C[C@H]2C2=CC[C@@H]4[C@@]5(C)Cc6c([nH]c7ccccc67)C(C)(C)[C@@H]5CC[C@@]4(C)[C@]2(C)CC3)c1`, the IC50 in the assay with RAW264.7 [1] was 23.2 µM; with RAW264.7 [2], 83.2 µM; in the assay on J774.A1 [3], 29.4 µM; in assay [4], 84.7 µM.
Regarding `CC1(C)CC[C@]2(C(=O)NC3CCCCC3)CC[C@]3(C)C(=CC[C@@H]4[C@@]5(C)Cc6c([nH]c7ccccc67)C(C)(C)[C@@H]5CC[C@]43C)[C@@H]2C1`, the inhibition at 20 µg/mL with J774.A1 [5] amounted to 31.7%; with RAW264.7 [6], 37.5%; in the assay on J774.A1 [7], 51.9%; in the assay on RAW264.7 [8], 47.8%. For the same compound, the IC50 with RAW264.7 [1] is 2.66 µM; with RAW264.7 [2] it was 96.4 µM; in the assay with J774.A1 [3], 10.8 µM; in assay [4], 97.3 µM.
Turning to `CC1(C)CC[C@]2(C(=O)O)CC[C@]3(C)C(=CC[C@@H]4[C@@]5(C)CC[C@H](O)C(C)(C)[C@@H]5CC[C@]43C)[C@@H]2C1` [OLEANOLIC_ACID], the half-inhibitory concentration (IC50) with RAW264.7 [1] was 41.7 µM; in the assay with RAW264.7 [2], 89.1 µM; in the assay on J774.A1 [3], 35.2 µM; in assay [4], 87.2 µM.
As to `CC1(C)CC[C@]2(C(=O)NN)CC[C@]3(C)C(=CC[C@@H]4[C@@]5(C)Cc6c([nH]c7ccccc67)C(C)(C)[C@@H]5CC[C@]43C)[C@@H]2C1`, the inhibition at 20 µg/mL in the assay on J774.A1 [5] was 11.1%; in the assay with RAW264.7 [6] it was 13.9%; in the assay on J774.A1 [7], 27.9%; in the assay on RAW264.7 [8] it was 31.2%. The IC50 in the assay with RAW264.7 [1] is 16.5 µM; in the assay on RAW264.7 [2], 92.4 µM; in the assay with J774.A1 [3] it was 17.7 µM; in assay [4] it was 91 µM.
`C[C@@H]1C[C@H]2[C@@H]3CCC4=CC(=O)C=C[C@]4(C)[C@@]3(F)[C@@H](O)C[C@]2(C)[C@@]1(O)C(=O)CO` [DEXAMETHASONE]: the IC50 in the assay on RAW264.7 [9] stood at 1.84 µg/mL (≈ 4.69 µM); in the assay with J774.A1 [10], 9.09 µg/mL (≈ 23.2 µM); in the assay with J774.A1 [11] it was 0.165 µg/mL (≈ 0.42 µM); with RAW264.7 [12], 0.016 µg/mL (≈ 0.0408 µM).
As to `CC1(C)CC[C@]2(C(=O)Nc3ccc(Br)cc3)CC[C@]3(C)C(=CC[C@@H]4[C@@]5(C)Cc6c([nH]c7ccccc67)C(C)(C)[C@@H]5CC[C@]43C)[C@@H]2C1`, the concentration for half-maximal inhibition (IC50) worked out at 25.4 µM in the assay with RAW264.7 [1], 85.3 µM with RAW264.7 [2], 27.4 µM with J774.A1 [3] and 87 µM in [4].
Consider `CNC(=O)[C@]12CCC(C)(C)C[C@H]1C1=CC[C@@H]3[C@@]4(C)Cc5c([nH]c6ccccc56)C(C)(C)[C@@H]4CC[C@@]3(C)[C@]1(C)CC2`, for which the inhibition at 20 µg/mL in the assay with J774.A1 [5] came to 11.8%; in the assay with RAW264.7 [6] it was 13.3%; with J774.A1 [7] it was 40.3%; in the assay on RAW264.7 [8], 43.7%. Also, the IC50 is 4.75 µM with RAW264.7 [1], 90.3 µM in the assay with RAW264.7 [2], 15.9 µM in the assay on J774.A1 [3] and 91.7 µM in assay [4].
Turning to `Cc1ccc(NC(=O)[C@]23CCC(C)(C)C[C@H]2C2=CC[C@@H]4[C@@]5(C)Cc6c([nH]c7ccccc67)C(C)(C)[C@@H]5CC[C@@]4(C)[C@]2(C)CC3)cc1`, the IC50 in the assay on RAW264.7 [1] stood at 22.6 µM; in the assay with RAW264.7 [2] it was 80.4 µM; with J774.A1 [3], 26.1 µM; in assay [4], 83.5 µM.
